Assay results reported in patent publication US10799484B2, “Compositions and methods for treating synucleinopathies” (priority 2017, dated 2020).
Read-outs that look alike come from different tables or passages of the source.

Assays:
[1] = target: human wild-type alpha-synuclein (Homo sapiens, UniProt P37840); conditions: in vitro; by H2O2 plus cytochrome c; cited from earlier work
[2] = test system: human neuroblastoma SH-SY5Y cells; conditions: cited from earlier work
[3] = target: synuclein oligomer formation (Homo sapiens, UniProt P37840); conditions: in vitro; cited from earlier work
PD patients = conditions: doses approved for motor symptoms of PD; 535 PD patients; cited from earlier work
humans = conditions: for MTD-1 (Pramipexole alone): Period 1
Protocol: The ability of the 5HT3-antagonists to prevent the gastro-intestinal (GI) adverse effects (AEs) of pramipexole in humans was tested.
A Phase I study was conducted in subjects receiving a single oral dose of pramipexole dihydrochloride monohydrate (“pramipexole”) with or without a single oral dose of ondansetron hydrochloride dihydrate (“ondansetron”). The study was single center, single-blind study.
Following enrollment in the study, participants received single increasing oral doses of pramipexole given once daily in the morning (Period 1 of the study). The starting dose of pramipexole was 0.5 mg and the dose was increased daily by 0.5 mg increments. Once a subject had reached his/her first intolerable dose (FID-1), upward dose escalation was discontinued.
When a subject reached FID-1 on pramipexole alone, the subject was washed out for at least 5 days, and then entered Period 2 of the study during which the subject received single daily oral doses of pramipexole starting at 0.5 mg and titrated upward by 0.5 mg increments, together with oral ondansetron hydrochloride dihydrate (10 mg, equivalent to 8 mg ondansetron base) until subjects again reached an intolerable dose defined as above. The FID on oral pramipexole plus oral ondansetron was referred to as FID-2.
If a subject reached FID-2 during Period 2 at the same or lower dose than FID-1, and providing the investigator judged there were no safety issues and the subject was consenting, the subject received the same dose of pramipexole as the FID-2 dose together with a higher dose of oral ondansetron hydrochloride dihydrate (20 mg, equivalent to 16 mg ondansetron base) on the next day and the protocol specified that said subject should continue with the remainder of the dose titration with the higher dose of oral ondansetron hydrochloride dihydrate (20 mg, equivalent to 16 mg ondansetron base) until they reach the intolerable dose (FID2+). All other provisions of the protocol remained unchanged. Assessments were the same as those planned for the dose escalation day.
On each study day, subjects were followed up for up to 8 hours following drug administration for AEs, vital signs, ECGs. In addition, a laboratory panel was taken at screening and at the end of the study.

[4] = test system: dopaminergic neurons in a mouse PD model; conditions: cited from earlier work
patients = conditions: 5 mg/day, cited from earlier work

SMILES: CCCN[C@H]1CCc2nc(N)sc2C1 [Pramipexole, (S)-6-propylamino-4,5,6,7-tetrahydro-1,3-benzothiazole-2-amine]
- oligomerization of human wild-type alpha-synuclein [1]: decreases
- aggregation of alpha-synuclein [2]: inhibit
- synuclein oligomer formation [3]: diminishes
- neuroprotective (disease modifying) activity (PD patients): failed to evidence
- dose limiting toxicity (humans; in vivo): gastro-intestinal adverse events
- MTD-1 (Pramipexole alone) (humans; subject 1001): 2.0 mg
- MTD-1 (Pramipexole alone) (humans; subject 1005): 1.5 mg
- MTD-1 (Pramipexole alone) (humans; subject 1006, cell wraps: NA (not tolerated at 0.5 mg), the starting dose): NA (not tolerated at
- MTD-1 (Pramipexole alone) (humans; subject 1007): 4.0 mg
- MTD-1 (Pramipexole alone) (humans; subject 1008): 1.0 mg
- toxic effects of rotenone on dopaminergic neurons [4]: inhibits
- immunoreactivity for alpha-synuclein ([4]; rotenone): reducing
- patients with nausea (patients): 76%
- patients with vomiting (patients): 39%
- patients not able to complete the study (patients; presumably because of intolerable GI adverse events): 36%
